# Patent publication US10457666B2, “Stable crystal form of tipiracil hydrochloride and crystallization method for the same” (TAIHO PHARMACEUTICAL CO., LTD., priority 2013, dated 2019)
# Several values for one entry are separate records, joined by “and”; a condition that tells them apart may be missing. Equal entries are not always repeated.
# Experiments:
# [1] = Test for measurement of electric charge amount by air transfer; type: physicochemical; conditions: for Amount of electric charge per unit mass, average value: average of 3 measurements; for Amount of electric charge per unit mass, average value / Amount of electric charge / Amount of electric charge per unit mass: air transfer 130 L/min, SUS electrifying tube, hydrochloride; for Amount of electric charge / Amount of electric charge per unit mass: individual measurements No. 1-3; for polarity of charge: relative to SUS membrane
# Description: Electric charge amounts of Crystal I and Crystal III obtained in accordance with Example 1 and Example 2 respectively were measured by air transfer. Crystal I or Crystal III was put in a powder supply part of an electrifying tube (made of SUS, 24.6×500 mm), and was left for 10 minutes. The sample was transferred by air at a flow rate of 130 L/min and the electric charge amount was calculated from the current value at that time obtained from the electrifying tube. ? =−∫0^tIdt Q: Amount of electric charge [C] I: Current generated during measurement [A] t: Measuring time […]
# The measurement was performed 5 times, of which 3 times that gave stable results were adopted. The average of the values of the 3 times was regarded as the measured value.
# [2] = Stability test (storage stability after preservation); type: physicochemical; conditions: preservation at 40° C. for six months; for change in powder X-ray diffraction pattern after preservation (storage stability): hydrochloride
# Description: Crystal I, Crystal III, and Crystal II of tipiracil hydrochloride obtained in accordance with Example 1, Example 2, and Reference Example 1 respectively were tested for storage stability after preservation at a temperature of 40° C. for six months.
SMILES,"Amount of electric charge per unit mass, average value [1]",Amount of electric charge [1],Amount of electric charge per unit mass [1],polarity of charge [1],amounts of analogous substances after preservation [2],change in powder X-ray diffraction pattern after preservation (storage stability) [2],charge relative to Crystal I ([1]; comparison of Table 2 and Table 3)
"Cl.N=C1CCCN1Cc1[nH]c(=O)[nH]c(=O)c1Cl [Crystal I, 5-chloro-6-(2-iminopyrrolidin-1-yl)methyl-2,4(1H,3H)-pyrimidinedione hydrochloride]",1.0 × 10^−7 C/g,5.3 × 10^−8 C and 5.0 × 10^−8 C,1.1 × 10^−7 C/g and 9.7 × 10^−8 C/g and 9.8 × 10^−8 C/g,(positively-charged,small and not increased,no change,–
"Cl.N=C1CCCN1Cc1[nH]c(=O)[nH]c(=O)c1Cl [Crystal III, 5-chloro-6-(2-iminopyrrolidin-1-yl)methyl-2,4(1H,3H)-pyrimidinedione hydrochloride]",3.5 × 10^−7 C/g,2.0 × 10^−7 C and 2.1 × 10^−7 C and 1.8 × 10^−7 C,3.2 × 10^−7 C/g (2×) and 4.2 × 10^−7 C/g,(positively-charged,small and not increased,no change,three times as much charge as Crystal I
"Cl.N=C1CCCN1Cc1[nH]c(=O)[nH]c(=O)c1Cl [Crystal II, 5-chloro-6-(2-iminopyrrolidin-1-yl)methyl-2,4(1H,3H)-pyrimidinedione hydrochloride]",–,–,–,–,–,not the same,–
